Converted amounts (≈) assume the structure as drawn.
SMILES | solubility (25 °C) [mM] | further results
CNC(=O)Oc1cc(C(C)(C)C)cc(C(C)(C)C)c1 | – | solubility (20 °C): 0.057 mM (≈ 15 µg/mL)
O=Cc1ccco1 | 801 (≈ 77000 µg/mL) | –
Nc1ccccc1 | 387 (≈ 36000 µg/mL) | –
Nc1ccc2ccccc2c1 | 1.32 (≈ 189 µg/mL) | –
C#CC(C)OC(=O)Nc1cccc(Cl)c1 (stereo not drawn) | – | solubility (20 °C): 2.41 mM (≈ 540 µg/mL)
O=C(Nc1cccc(Cl)c1)OCC#CCCl | 0.0426 (≈ 11 µg/mL) | –
CCCCCCCCC=O | 0.675 (≈ 96 µg/mL) | –
CN1CCN(CCCN2c3ccccc3Sc3ccc(Cl)cc32)CC1 | – | solubility (24 °C): 0.04 mM (≈ 15 µg/mL)
O=C(O)c1cccc([N+](=O)[O-])c1 | 21.4 (≈ 3580 µg/mL) | –
Cc1cc(O)cc(C)c1Cl | – | solubility (20 °C): 1.6 mM (≈ 250 µg/mL)
BrCCCBr | – | solubility (20 °C): 8.42 mM (≈ 1700 µg/mL)
CC(C)Br | – | solubility (20 °C): 24.6 mM (≈ 3020 µg/mL)
CC(C)(C)NCC(O)c1ccc(O)c(CO)c1 (stereo not drawn) | – | solubility: 59.3 mM (≈ 14200 µg/mL)
CC(C)C[C@H](N)C(=O)O | 141 (≈ 18500 µg/mL) | –
S=C=S | – | solubility (20 °C): 15.5 mM (≈ 1180 µg/mL)
CCC1(c2ccccc2)CCC(=O)NC1=O (stereo not drawn) | – | solubility (30 °C): 4.6 mM (≈ 999 µg/mL)
C#C | – | solubility (20 °C): 46.1 mM (≈ 1200 µg/mL)
CCC1(CCC(C)C)C(=O)NC(=O)NC1=O | 2.67 (≈ 603 µg/mL) | –
CCOP(=S)(OCC)Oc1nc(Cl)c(Cl)cc1Cl | – | solubility (24 °C): 0.00319 mM (≈ 1.12 µg/mL)
Cc1cccc(O)c1 | 210 (≈ 22700 µg/mL) | –
O=Cc1ccccc1 | 61.9 (≈ 6570 µg/mL) | –
C[C@]12CC[C@H]3[C@@H](CCC4=CC(=O)CC[C@@H]43)[C@@H]1CC[C@@H]2O | 11.3 (≈ 3090 µg/mL) | –
CCCCCCC(C)=O | – | solubility (20 °C): 7.02 mM (≈ 900 µg/mL)
CCOC(=O)c1ccc(N)cc1 | – | solubility (30 °C): 7.93 mM (≈ 1310 µg/mL)
CCNc1nc(NC(C)C)nc(SC)n1 | 0.919 (≈ 209 µg/mL) | –
Cn1cnc2c1c(=O)[nH]c(=O)n2C | 1.83 (≈ 330 µg/mL) | –

SMILES | solubility (25 °C) [mM] | further results
CCOC(=O)c1ccc(O)cc1 | 4.91 (≈ 816 µg/mL) | –
CC(=O)OC(C)=O | – | solubility (20 °C): 1180 mM (≈ 120000 µg/mL)
ClC1(Cl)C2(Cl)C3(Cl)C4(Cl)C(Cl)(Cl)C5(Cl)C3(Cl)C1(Cl)C5(Cl)C24Cl (stereo not drawn) | 0.000156 (≈ 0.085 µg/mL) | –
CCCCC(C)=O | – | solubility (20 °C): 175 mM (≈ 17500 µg/mL)
CCOP(=S)(OCC)SCC(=O)NC(C)C | – | solubility (20 °C): 8.76 mM (≈ 2500 µg/mL)
CCCCCCCCCCCCCCCCO | 9.69e-05 (≈ 0.0235 µg/mL) | –
CC(Oc1cc(Cl)c(Cl)cc1Cl)C(=O)O (stereo not drawn) | – | solubility (23 °C): 0.341 mM (≈ 92 µg/mL)
CC1(C)C(=O)N(Cl)C(=O)N1Cl | – | solubility (20 °C): 2.54 mM (≈ 500 µg/mL)
O=[N+]([O-])c1ccc(Cl)cc1 | – | solubility (20 °C): 1.43 mM (≈ 225 µg/mL)
Nc1nc(N)nc(N)n1 | – | solubility (20 °C): 25.6 mM (≈ 3230 µg/mL)
CC[C@H](C)[C@H](N)C(=O)O (racemic) | – | solubility (24 °C): 262 mM (≈ 34400 µg/mL)
c1ccc(Nc2ccccc2)cc1 | – | solubility (20 °C): 0.313 mM (≈ 53 µg/mL)
COc1cc(Cl)c(OC)cc1Cl | 0.0386 (≈ 8 µg/mL) | –
Nc1ccc(C(=O)O)cc1 | – | solubility (30 °C): 44.6 mM (≈ 6110 µg/mL)
Cn1c(=O)c2[nH]cnc2n(C)c1=O | 40.9 (≈ 7360 µg/mL) | –
CC(C)(C)C | 0.46 (≈ 33.2 µg/mL) | –
Cc1ccc2cc3c(ccc4ccccc43)cc2c1 | – | solubility (24 °C): 0.000153 mM (≈ 0.037 µg/mL)
CCCBr | – | solubility (20 °C): 19.9 mM (≈ 2450 µg/mL)
C1=CCCCC1 | 2.59 (≈ 213 µg/mL) | –
c1ccc(-c2ccccc2)cc1 | 0.045 (≈ 6.94 µg/mL) | –
CC(C)OC(=O)Nc1ccccc1 | 0.999 (≈ 179 µg/mL) | –
Clc1ccc(Cl)cc1 | 0.553 (≈ 81.3 µg/mL) | –
CCOCCOC(C)=O | – | solubility (20 °C): 1870 mM (≈ 247000 µg/mL)
O=[N+]([O-])c1ccc(Cl)c(Cl)c1 | – | solubility (20 °C): 0.63 mM (≈ 121 µg/mL)
Oc1ncnc2[nH]ncc12 | 4.18 (≈ 569 µg/mL) | –
CCCCC(=O)O | 384 (≈ 39200 µg/mL) | –

SMILES | solubility (25 °C) [mM] | further results
CCN(CC)c1c([N+](=O)[O-])cc(C(F)(F)F)c(N)c1[N+](=O)[O-] | 0.00341 (≈ 1.1 µg/mL) | –
COP(=S)(OC)SCC(=O)N(C)C=O | – | solubility (24 °C): 10.1 mM (≈ 2600 µg/mL)
NC(=O)NC1NC(=O)NC1=O (stereo not drawn) | – | solubility: 33.3 mM (≈ 5260 µg/mL)
CCCCc1ccccc1 | 0.0879 (≈ 11.8 µg/mL) | –
OC(O)C(Cl)(Cl)Cl | 4790 (≈ 793000 µg/mL) | –
O=C1OC(c2ccc(O)cc2)(c2ccc(O)cc2)c2ccccc21 | – | solubility: 1.26 mM (≈ 400 µg/mL)
CCNc1nc(NC(C)(C)C)nc(SC)n1 | – | solubility (20 °C): 0.104 mM (≈ 25 µg/mL)
N[C@@H](Cc1c[nH]c2ccccc12)C(=O)O | 65.6 (≈ 13400 µg/mL) | –
Cc1ccc(O)cc1 | 199 (≈ 21500 µg/mL) | –
O=C(O)c1ccccc1C(=O)O | 42.1 (≈ 6990 µg/mL) | –
O=C(O)c1cccnc1C(=O)O | 65.8 (≈ 11000 µg/mL) | –
ClC(Cl)=C(c1ccc(Cl)cc1)c1ccc(Cl)cc1 | 0.000126 (≈ 0.04 µg/mL) | –
O=[N+]([O-])c1cccc(Cl)c1 | – | solubility (20 °C): 1.73 mM (≈ 273 µg/mL)
O=[N+]([O-])c1cccc(Cl)c1Cl | – | solubility (20 °C): 0.325 mM (≈ 62.4 µg/mL)
N[C@@H](Cc1ccccc1)C(=O)O (racemic) | – | solubility (22 °C): 134 mM (≈ 22100 µg/mL)
CCNC(=O)CSP(=S)(OC)OC | 34.9 (≈ 8500 µg/mL) | –
CCCC(C)(COC(N)=O)COC(N)=O | 21.5 (≈ 4700 µg/mL) | –
O=[N+]([O-])C(Br)(CO)CO | – | solubility (22 °C): 1250 mM (≈ 250000 µg/mL)
CCCCCCCO | 14.4 (≈ 1670 µg/mL) | –
C[C@]12CCC(=O)C=C1CC[C@@H]1[C@@H]2CC[C@@]2(C)[C@H]1CC[C@]2(C)O | 0.112 (≈ 33.9 µg/mL) | –
Clc1ccc(C(c2ccc(Cl)cc2)C(Cl)(Cl)Cl)cc1 | 1.55e-05 (≈ 0.0055 µg/mL) | –
CCCCCC(=O)O | 88.7 (≈ 10300 µg/mL) | –
CC[N+](=O)[O-] | 626 (≈ 47000 µg/mL) | –
CCC(C)CC | 0.208 (≈ 17.9 µg/mL) | –
CC12CCC(CC1=O)C2(C)C (stereo not drawn) | 2.63 (≈ 400 µg/mL) | –
Oc1cccc(O)c1O | 4020 (≈ 507000 µg/mL) | –

— the OPERA property sets (Mansouri et al. 2018)
